Laboratory results reported in patent US20090247559A1 (Exelixis, Inc., priority 2007, published 2009).

Columns and labels:
[1] = target: CK2 (Homo sapiens, UniProt P68400); test: CK2 inhibition, biochemical chemiluminescence holoenzyme assay (Kinase Glo, IC50 determination); settings: Table 1 activity class; symbol given only if active; read-out: CK2 IC50 (Activity C)
Description: Characterization of CK2 Inhibition in a Biochemical Chemiluminesence Assay (IC50 Determination):
The IC50 evaluation of compounds against CK2 was performed in a Chemiluminesence Holoenzyme assay utilizing a Greiner 384-well white medium binding white plate format. […] The assay procedure involves the compound dilution scheme followed by addition of 10 μL of the substrate twice, followed by 10 μL twice of the respective enzyme or buffer to the designated well plates and subsequent pre-incubation of the compounds. Following an incubation period of 150 minutes at ambient temperature (24-27° C.), 10 μL of Kinase Glo (Promega) was added. The luminescence was measured following a Luminescence Protocol on a Victor plate reader.

[2] = target: PIM (PIM-1, PIM-2, and/or PIM-3); test: PIM-1, PIM-2 and PIM-3 inhibition, biochemical chemiluminescence assays (Kinase Glo, IC50 determination); settings: Table 1 activity class; PIM refers to PIM-1, PIM-2, and/or PIM-3; read-out: PIM IC50 (Activity B)
Description: (§1) The IC50 evaluation of compounds against the PIM-1 oncogene was performed in a Chemiluminesence assay utilizing a Greiner 384-well white medium binding white plate format. […] Following an incubation period of 120 minutes at ambient temperature (24-27° C.), 10 μL of Kinase Glo (Promega) was added. The luminescence was measured following a Luminescence Protocol on a Victor plate reader.
The IC50 evaluation of compounds against the PIM-2 oncogene was performed in a Chemiluminesence assay utilizing a Greiner 384-well white medium binding white plate format. […] The assay procedure involves compound dilution followed by addition of 3 nM PIM-2 to the designated well plates and subsequent pre-incubation of the compounds with the enzyme for 30 minutes at ambient temperature (24-27° C.). […] Following an incubation period of 120 minutes at ambient temperature (24-27° C.), 10 μL of Kinase Glo (Promega) was added. The luminescence was measured following a Luminescence Protocol on a Victor plate reader.
as §1, with “PIM-3 Oncogene” for “PIM-1 oncogene”

Chain of CK2 (P68400 whole entry): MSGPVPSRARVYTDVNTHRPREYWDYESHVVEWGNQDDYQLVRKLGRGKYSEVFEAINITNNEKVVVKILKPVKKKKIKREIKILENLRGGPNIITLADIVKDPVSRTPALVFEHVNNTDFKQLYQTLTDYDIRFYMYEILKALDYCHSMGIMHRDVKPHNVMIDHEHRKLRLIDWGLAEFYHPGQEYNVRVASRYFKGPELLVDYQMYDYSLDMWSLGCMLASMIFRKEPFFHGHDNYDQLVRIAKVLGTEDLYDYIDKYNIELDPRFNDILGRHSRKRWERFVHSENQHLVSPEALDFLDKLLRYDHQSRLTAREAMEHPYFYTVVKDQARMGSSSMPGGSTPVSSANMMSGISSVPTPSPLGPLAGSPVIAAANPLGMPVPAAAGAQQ
Chain of CK2 (P67870 whole entry partner): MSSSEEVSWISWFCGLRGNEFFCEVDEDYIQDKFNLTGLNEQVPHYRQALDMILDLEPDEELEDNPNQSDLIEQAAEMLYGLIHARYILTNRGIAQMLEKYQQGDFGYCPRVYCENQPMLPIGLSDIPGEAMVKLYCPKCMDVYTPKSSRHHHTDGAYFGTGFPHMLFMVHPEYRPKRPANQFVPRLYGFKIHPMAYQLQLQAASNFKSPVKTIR

SMILES	IC50 [1]	IC50 [2]
O=c1[nH]c(-c2ccccn2)nc2c1oc1ccc(Br)cc12 [Compound 57, 8-Bromo-2-pyridin-2-yl[1]benzofuro[3,2-d]pyrimidin-4(3H)-one]	< 10 µM	< 10 µM
O=c1[nH]c(-c2cccs2)nc2c1oc1ccc(Br)cc12 [Compound 59, 8-bromo-2-(2-thienyl)[1]benzofuro[3,2-d]pyrimidin-4(3H)-one]	< 10 µM	< 10 µM
COc1cc(Br)c(-c2nc3c(oc4ccc(Br)cc43)c(=O)[nH]2)cc1OC [Compound 66, 8-bromo-2-[2-bromo-4,5-bis(methyloxy)phenyl][1]benzofuro[3,2-d]pyrimidin-4(3H)-one]	< 10 µM	< 10 µM
CN1CCN(c2ccc(NCc3nc4c(oc5ccc(Br)cc54)c(=O)[nH]3)cc2)CC1 [Compound 75, 8-bromo-2-({[4-(4-methylpiperazin-1-yl)phenyl]amino}methyl)[1]benzofuro[3,2-d]pyrimidin-4(3H)-one]	< 10 µM	< 10 µM
CCc1ccccc1-c1nc2c(oc3ccc(Br)cc32)c(=O)[nH]1 [Compound 77, 8-bromo-2-(2-ethylphenyl)[1]benzofuro[3,2-d]pyrimidin-4(3H)-one]	< 10 µM	< 10 µM
COc1ccc(Br)c(-c2nc3c(oc4ccc(Br)cc43)c(=O)[nH]2)c1 [Compound 78, 8-bromo-2-[2-bromo-5-(methyloxy)phenyl][1]benzofuro[3,2-d]pyrimidin-4(3H)-one]	< 10 µM	< 10 µM
COc1ccc(-c2nc3c(oc4ccc(Br)cc43)c(=O)[nH]2)c(Cl)c1 [Compound 79, 8-bromo-2-[2-chloro-4-(methyloxy)phenyl][1]benzofuro[3,2-d]pyrimidin-4(3H)-one]	< 10 µM	< 10 µM

Second part, the compound after the results:

IC50 [1]	IC50 [2]	SMILES
< 10 µM	< 10 µM	Cc1cc(NCC2CCNCC2)ccc1-c1nc2c(oc3ccc(Br)cc32)c(=O)[nH]1 [Compound 54, 8-bromo-2-{2-methyl-4-[(piperidin-4-ylmethyl)amino]phenyl}[1]benzofuro[3,2-d]pyrimidin-4(3H)-one]
< 10 µM	< 10 µM	O=c1[nH]c(-c2ccccc2F)nc2c1oc1ccc(Br)cc12 [Compound 58, 8-Bromo-2-(2-fluorophenyl)[1]benzofuro[3,2-d]pyrimidin-4(3H)-one]
< 10 µM	< 10 µM	Cc1cc(NC(=O)CN(C)C)ccc1-c1nc2c(oc3ccc(Br)cc32)c(=O)[nH]1 [Compound 62, N-[4-(8-bromo-4-oxo-3,4-dihydro[1]benzofuro[3,2-d]pyrimidin-2-yl)-3-methylphenyl]-N′2′,N′2′-dimethylglycinamide]
< 10 µM	< 10 µM	O=c1[nH]c(-c2ccccc2C(F)(F)F)nc2c1oc1ccc(Br)cc12 [Compound 65, 8-bromo-2-[2-(trifluoromethyl)phenyl][1]benzofuro[3,2-d]pyrimidin-4(3H)-one]
< 10 µM	< 10 µM	COc1ccc(F)c(-c2nc3c(oc4ccc(Br)cc43)c(=O)[nH]2)c1 [Compound 67, 8-bromo-2-[2-fluoro-5-(methyloxy)phenyl][1]benzofuro[3,2-d]pyrimidin-4(3H)-one]
< 10 µM	< 10 µM	COc1ccc(-c2nc3c(oc4ccc(Br)cc43)c(=O)[nH]2)c(Cl)c1OC [Compound 68, 8-bromo-2-[2-chloro-3,4-bis(methyloxy)phenyl][1]benzofuro[3,2-d]pyrimidin-4(3H)-one]
< 10 µM	< 10 µM	O=c1[nH]c(-c2ccc(Cl)s2)nc2c1oc1ccc(Br)cc12 [Compound 69, 8-bromo-2-(5-chloro-2-thienyl)[1]benzofuro[3,2-d]pyrimidin-4(3H)-one]
< 10 µM	< 10 µM	O=c1[nH]c(-c2c(F)cccc2F)nc2c1oc1ccc(Br)cc12 [Compound 70, 8-bromo-2-(2,6-difluorophenyl)[1]benzofuro[3,2-d]pyrimidin-4(3H)-one]
